Measurements reported in patent US10301288B2, “Kinase inhibitors” (Topivert Pharma Limited, priority 2013, dated 2019).

How the values were obtained:
HT29 cells = experiment: (d) IL-1β-induced IL-8 release in HT29 cells; type: cell-based; conditions: Homo sapiens, HT-29, read-out: IC50 for Inhibition of Cytokine Release, IL-8
Experimental: HT29 cells, a human colon adenocarcinoma cell line, are plated in a 96 well plate (24 hrs) and pre-treated with compounds at the desired concentration for 2 hours before addition of 5 ng/ml of IL-1β (Abeam) for 24 hours. Supernatants are harvested for IL-8 quantification by Sandwich ELISA (Duo-set, R&D System). The IC50 is determined from the dose response curve.

Syk = Syk (Homo sapiens (Human), UniProt P43405); experiment: Syk enzyme inhibition (FRET); type: biochemical
Experimental: (§1) The enzyme inhibitory activities of compounds disclosed herein are determined by FRET using synthetic peptides labelled with both donor and acceptor fluorophores (Z-LYTE, Invitrogen Ltd., Paisley, UK).
(§2) The inhibitory activities of compounds of the invention against c-Src and Syk enzymes (Invitrogen), are evaluated in a similar fashion to that described hereinabove. The relevant enzyme (3000 ng/mL or 2000 ng/mL respectively, 2.5 μL) is incubated with the test compound (either 4 μg/mL, 0.4 μg/mL, 0.04 μg/mL, or 0.004 μg/mL, 2.5 μL each) for 2 hr at RT. The FRET peptides (8 μM. 2.5 μL), and appropriate ATP solutions (2.5 μL, 800 μM for c-Src, and 60 μM ATP for Syk) are then added to the enzymes/compound mixtures and incubated for 1 hr. Development reagent (protease, 5 μL) is added for 1 hr prior to detection in a fluorescence microplate reader (Varioskan® Flash, ThermoFisher Scientific).
(§3) In all cases, the site-specific protease cleaves non-phosphorylated peptide only and eliminates the FRET signal. Phosphorylation levels of each reaction are calculated using the ratio of coumarin emission (donor) over fluorescein emission (acceptor), for which high ratios indicate high phosphorylation and low ratios indicate low phosphorylation levels.

PBMCs = experiment: (b) LPS-induced TNFα/IL-8 release in PBMC cells; type: cell-based; conditions: Homo sapiens, read-out: IC50 for Inhibition of Cytokine Release, IL-8
Experimental: Peripheral blood mononuclear cells (PBMCs) from healthy subjects are separated from whole blood using a density gradient (Lymphoprep, Axis-Shield Healthcare). The PBMCs are seeded in 96 well plates and treated with compounds at the desired concentration for 2 hours before addition of 1 ng/ml LPS (Escherichia Coli 0111:B4 from Sigma Aldrich) for 24 hours under normal tissue culture conditions (37° C., 5% CO2). The supernatant is harvested for determination of IL-8 and TNFα concentrations by sandwich ELISA (Duo-set, R&D systems) and read on the fluorescence microplate reader (Varioskan® Flash, ThermoFisher Scientific).

c-Src = c-Src (Homo sapiens (Human), UniProt P12931); experiment: c-Src enzyme inhibition (FRET); type: biochemical
Experimental: as §1, §2, §3

GSK3α = GSK3α (Homo sapiens (Human), UniProt P49840); experiment: GSK 3α enzyme inhibition (FRET, Method 2); type: biochemical
Experimental: as §1
The inhibitory activities of compounds of the invention against the GSK 3α enzyme isoform (Invitrogen), are evaluated by determining the level of activation/phosphorylation of the target peptide. The GSK3-α protein (500 ng/mL, 2.5 μL) is mixed with the test compound (2.5 μL at either 4 μg/mL, 0.4 μg/mL, 0.04 μg/mL, or 0.004 μg/mL) for 2 hr at RT. The FRET peptide (8 μM, 2.5 μL), which is a phosphorylation target for GSK3α, and ATP (40 μM, 2.5 μL) are then added to the enzyme/compound mixture and the resulting mixture incubated for 1 hr. Development reagent (protease, 5 μL) is added for 1 hr prior to detection in a fluorescence microplate reader (Varioskan® Flash, ThermoFisher Scientific).
as §3

p38 MAPKα = p38 MAPKα (Homo sapiens (Human), UniProt Q16539); experiment: p38 MAPKα enzyme inhibition (FRET, Method 2); type: biochemical
Experimental: as §1
The inhibitory activities of test compounds against the p38 MAPKα isoform (MAPK14: Invitrogen), are evaluated indirectly by determining the level of activation/phosphorylation of the down-stream molecule, MAPKAP-K2. The p38 MAPKα protein (80 ng/mL, 2.5 μL) is mixed with the test compound (2.5 μL of either 4 μg/mL, 0.4 μg/mL, 0.04 μg/mL or 0.004 μg/mL) for 2 hr at RT. […] The mixture is incubated for 1 hr at RT. Development reagent (protease, 5 μL) is added for 1 hr prior to detection in a fluorescence microplate reader (Varioskan® Flash, ThermoFisher Scientific).
as §3

kinases = experiment: KinomeScan selectivity scores / number of hits; type: binding
Experimental: These assays may be conducted by DiscoverX (formerly Ambit; San Diego, Calif.). The percentage inhibition produced by incubation with a test compound may be calculated relative to the non-inhibited control.

β-catenin = experiment: (m) Accumulation of β catenin in d-U937 cells; type: cell-based, human; conditions: 1 μg/mL; Reference Compound at 1 μg/mL defined as 100%
Experimental: U937 cells, a human monocytic cell line, are differentiated into macrophage-type cells by incubation with PMA; (100 ng/mL) for between 48 to 72 hr. The cells are then incubated with either final concentrations of test compound or vehicle for 18 hr. The induction of β-catenin by the test compounds is stopped by replacing the media with 4% formaldehyde solution. Endogenous peroxide activity is neutralised by incubating with quenching buffer (100 μL, 0.1% sodium azide, 1% H2O2 in PBS with 0.05% Tween-20) for 20 min. The cells are washed with washing buffer (200 μL; PBS containing 0.05% Tween-20) and incubated with blocking solution (200 μL; 5% milk in PBS) for 1 hr, re-washed with washing buffer (200 μL) and then incubated overnight with anti-β-catenin antibody solution (50 μL) in 1% BSA/PBS (BD, Oxford, UK).
After washing with washing buffer (3×200 μL; PBS containing 0.05% Tween-20), cells are incubated with an HRP-conjugated secondary antibody solution (100 μL) in 1% BSA/PBS (Dako, Cambridge, UK) and the resultant signal is determined colourimetrically (OD: 450 nm with a reference wavelength of 655 nm) using TMB substrate (50 μL; R&D Systems, Abingdon, UK). This reaction is stopped by addition of 1N H2SO4 solution (50 μL). Cells are then washed with washing buffer and 2% crystal violet solution (50 μL) is applied for 30 min. After washing with washing buffer (3×200 μL), 1% SDS (100 μL) is added to each well and the plates are shaken lightly for 1 hr prior to measuring the absorbance at 595 nm (Varioskan® Flash, Thermo-Fisher Scientific).
The measured OD450-655 readings are corrected for cell number by dividing the OD450-655 by the OD595 readings.

Chain of GSK3α (P49840 whole entry): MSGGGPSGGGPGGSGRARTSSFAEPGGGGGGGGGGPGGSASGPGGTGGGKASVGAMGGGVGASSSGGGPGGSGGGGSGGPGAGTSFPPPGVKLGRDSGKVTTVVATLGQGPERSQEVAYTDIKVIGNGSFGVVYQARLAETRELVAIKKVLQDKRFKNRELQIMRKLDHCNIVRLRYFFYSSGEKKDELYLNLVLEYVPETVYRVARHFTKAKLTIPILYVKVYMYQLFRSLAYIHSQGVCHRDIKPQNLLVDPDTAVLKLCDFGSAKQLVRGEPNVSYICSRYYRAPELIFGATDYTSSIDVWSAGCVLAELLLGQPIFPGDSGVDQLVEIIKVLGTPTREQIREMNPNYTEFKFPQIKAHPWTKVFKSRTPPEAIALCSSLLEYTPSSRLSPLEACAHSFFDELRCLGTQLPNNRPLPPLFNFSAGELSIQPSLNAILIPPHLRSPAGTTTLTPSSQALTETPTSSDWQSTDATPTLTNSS
Chain of c-Src (P12931 whole entry, looked up): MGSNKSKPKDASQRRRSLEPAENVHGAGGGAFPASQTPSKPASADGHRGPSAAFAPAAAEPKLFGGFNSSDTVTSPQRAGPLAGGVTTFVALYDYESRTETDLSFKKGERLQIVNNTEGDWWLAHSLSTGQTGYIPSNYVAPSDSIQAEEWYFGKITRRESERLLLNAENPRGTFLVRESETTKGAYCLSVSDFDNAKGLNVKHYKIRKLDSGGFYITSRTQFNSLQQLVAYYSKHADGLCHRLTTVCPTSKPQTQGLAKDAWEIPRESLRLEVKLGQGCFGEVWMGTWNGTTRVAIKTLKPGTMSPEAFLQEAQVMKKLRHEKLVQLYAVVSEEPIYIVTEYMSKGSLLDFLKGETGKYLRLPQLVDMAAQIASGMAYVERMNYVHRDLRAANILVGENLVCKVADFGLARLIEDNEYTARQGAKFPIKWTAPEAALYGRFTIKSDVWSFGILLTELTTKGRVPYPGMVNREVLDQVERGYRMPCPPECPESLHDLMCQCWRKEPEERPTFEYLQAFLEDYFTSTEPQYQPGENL
Chain of p38 MAPKα (Q16539 whole entry): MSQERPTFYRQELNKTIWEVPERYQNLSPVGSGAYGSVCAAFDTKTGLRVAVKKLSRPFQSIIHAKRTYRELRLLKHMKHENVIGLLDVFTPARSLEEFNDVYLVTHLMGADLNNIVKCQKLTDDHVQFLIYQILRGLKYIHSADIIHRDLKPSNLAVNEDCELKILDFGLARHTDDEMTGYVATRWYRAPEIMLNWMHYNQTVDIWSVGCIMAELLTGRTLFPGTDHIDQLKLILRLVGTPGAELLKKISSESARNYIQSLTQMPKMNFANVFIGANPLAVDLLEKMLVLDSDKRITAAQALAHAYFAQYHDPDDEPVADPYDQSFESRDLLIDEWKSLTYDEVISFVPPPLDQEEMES

SMILES | IC50 (HT29 cells) [nM] | IC50 (Syk) [nM] | IC50 (c-Src) [nM] | IC50 (GSK3α) [nM] | IC50 (p38 MAPKα) [nM] | IC50 (PBMCs) [nM] | KinomeScan S(1) number of hits (kinases; 50 nM) | KinomeScan S(10) number of hits (kinases; 50 nM) | KinomeScan S(35) number of hits (kinases; 50 nM) | KinomeScan S(1) number of hits (kinases; 500 nM) | KinomeScan S(10) number of hits (kinases; 500 nM) | KinomeScan S(35) number of hits (kinases; 500 nM) | % β-catenin induction (β-catenin) [%]
C#Cc1cc(Nc2cc(Oc3ccc(NC(=O)Nc4cc(C(C)(C)C)nn4-c4ccc(N(C)C)cc4)c4ccccc34)ccn2)cc(C(=O)NCCOCCOCCOC)c1 [Example 11, 3-((4-((4-(3-(3-(tert-Butyl)-1-(4-(dimethylamino)phenyl)-1H-pyrazol-5-yl)ureido)-naphthalen-1-yl)oxy)pyridin-2-yl)amino)-5-ethynyl-N-(2-(2-(2-methoxyethoxy)ethoxy)-ethyl)benzamide] | 6.2 | > 1210 | > 1210 | 12100 | 766 | 4.3 | – | – | – | – | – | – | –
COCC(=O)Nc1cc(Oc2ccc(NC(=O)Nc3cc(C(C)(C)C)nn3-c3ccc(C)cc3)c3ccccc23)ccn1 [Reference Compound, N-(4-(4-(3-(3-tert-butyl-1-p-tolyl-1H-pyrazol-5-yl)ureido)naphthalen-1-yloxy)pyridin-2-yl)-2-methoxyacetamide, reference compound] | – | – | – | – | – | – | 7 | 32 | 67 | 45 | 105 | 143 | 100

Continued, in another order:

IC50 (HT29 cells) [nM] | IC50 (Syk) [nM] | IC50 (c-Src) [nM] | IC50 (GSK3α) [nM] | IC50 (p38 MAPKα) [nM] | SMILES | IC50 (PBMCs) [nM] | KinomeScan S(1) number of hits (kinases; 50 nM) | KinomeScan S(10) number of hits (kinases; 50 nM) | KinomeScan S(35) number of hits (kinases; 50 nM) | KinomeScan S(1) number of hits (kinases; 500 nM) | KinomeScan S(10) number of hits (kinases; 500 nM) | KinomeScan S(35) number of hits (kinases; 500 nM) | % β-catenin induction (β-catenin) [%]
10.9 | – | – | 12500 | – | C#Cc1cc(Nc2nccc(Oc3ccc(NC(=O)Nc4cc(C(C)(C)C)nn4-c4ccc(C)cc4)c4c3CCCC4)n2)cc(C(=O)NCCOCCOCCOC)c1 [Example 12, 3-((4-((4-(3-(3-(tert-Butyl)-1-(p-tolyl)-1H-pyrazol-5-yl)ureido)-5,6,7,8-tetrahydronaphthalen-1-yl)oxy)pyrimidin-2-yl)amino)-5-ethynyl-N-(2-(2-(2-methoxyethoxy)-ethoxy)ethyl)benzamide] | 11.8 | – | – | – | – | – | – | –
1.5 | 20 | 4 | 402 | 88 | C#Cc1cc(Nc2nccc(Oc3ccc(NC(=O)Nc4cc(C(C)(C)C)nn4-c4cccc(CP(C)(C)=O)c4)c4ccccc34)n2)cc(C(=O)NCCOCCOCCOC)c1 [Example 14, 3-((4-((4-(3-(3-(tert-Butyl)-1-(3-((dimethylphosphoryl)methyl)phenyl)-1H-pyrazol-5-yl)-ureido)naphthalen-1-yl)oxy)pyrimidin-2-yl)amino)-5-ethynyl-N-(2-(2-(2-methoxyethoxy)-ethoxy)ethyl)benzamide] | 1.5 | – | – | – | – | – | – | –
– | 27 | 15 | 646 | – | COCCOCCOCCNC(=O)c1cc(Nc2nccc(Oc3ccc(NC(=O)Nc4cc(C(C)(C)C)nn4-c4ccc(N(C)C)cc4)c4ccccc34)n2)cc(OC)c1 [Example 16, 3-((4-((4-(3-(3-(tert-Butyl)-1-(4-(dimethylamino)phenyl)-1H-pyrazol-5-yl)ureido)-naphthalen-1-yl)oxy)pyrimidin-2-yl)amino)-5-methoxy-N-(2-(2-(2-methoxyethoxy)-ethoxy)ethyl)benzamide] | 2.7 | – | – | – | – | – | – | –
– | – | – | 12100 | – | C#Cc1cc(Nc2nccc(Oc3ccc(NC(=O)Nc4cc(C(C)(C)C)nn4-c4ccc(OC)cc4C)c4ccccc34)n2)cc(C(=O)NCCOCCOCCOC)c1 [Example 17, 3-((4-((4-(3-(3-(tert-Butyl)-1-(4-methoxy-2-methylphenyl)-1H-pyrazol-5-yl)ureido)-naphthalen-1-yl)oxy)pyrimidin-2-yl)amino)-5-ethynyl-N-(2-(2-(2-methoxyethoxy)-ethoxy)ethyl)benzamide] | 5 | – | – | – | – | – | – | –
